The values that follow are results of earlier work, collected in US20100093849A1, “OXALIPLATIN PHARMACEUTICAL COMPOSITION WITH ALCOHOLIC SUGAR-BASED BUFFER” (priority 2007, published 2010).

The conditions of data set [1]: Merck Index.

Several values for one entry are separate records, joined by “and”; a condition that tells them apart may be missing. Equal values may be shown once.

On to `O=C(O)C(=O)O` [Oxalic acid], for which the “second dissociation constant, pKa” value in data set [1] is recorded as 4.28.
Regarding `O=C1[O][Pt]2([NH][C@@H]3CCCC[C@H]3[NH]2)[O]C1=O` [Oxaliplatinum, {trans-(1R,2R)-1,2-cyclohexane-diamine}-(oxalato)platinum(II) complex], where the note is “at 37° C.”, the solubility in water result is given as “about 8 mg/ml”. Further, the “solubility in ether and ethanol” value (ether and ethanol) is recorded as “practically insoluble”. The “highest concentrations of oxaliplatinum achieved” value (solvent of the same volumes of 1,2-propanediol and water (WO0115691)) was 14.01 mg/mL and 14.33 mg/mL.
